Measurements published in ChEMBL document CHEMBL2413072, “Synthesis and in vitro anticancer studies of novel C-2 arylidene congeners of lantadenes” (2013).

What was measured:
Assay type in all cases: functional
A549 = assay: Growth inhibition of human A549/ATCC cells assessed as cell growth at 10^-4 M by sulforhodamine B assay; conditions: read-out: Activity
MDA-MB-435 = assay: Growth inhibition of human MDA-MB-435 cells assessed as cell growth at 10^-7 M by sulforhodamine B assay; conditions: read-out: Activity
SNB-75 = assay: Growth inhibition of human SNB75 cells assessed as cell growth at 10^-8 M by sulforhodamine B assay; conditions: read-out: Activity
OVCAR-4 [1] = assay: Growth inhibition of human OVCAR4 cells by sulforhodamine B assay
TK-10 [2] = assay: Growth inhibition of human TK10 cells assessed as cell growth at 10^-6 M by sulforhodamine B assay; conditions: read-out: Activity
OVCAR-4 [3] = assay: Growth inhibition of human OVCAR4 cells assessed as cell growth at 10^-4 M by sulforhodamine B assay; conditions: read-out: Activity
OVCAR-8 = assay: Growth inhibition of human OVCAR8 cells assessed as cell growth at 10^-8 M by sulforhodamine B assay; conditions: read-out: Activity
SF-295 [4] = assay: Growth inhibition of human SF295 cells assessed as cell growth at 10^-7 M by sulforhodamine B assay; conditions: read-out: Activity
MDA-MB-468 = assay: Growth inhibition of human MDA-MB-468 cells assessed as cell growth at 10^-6 M by sulforhodamine B assay; conditions: read-out: Activity
NCI-H23 = assay: Growth inhibition of human NCI-H23 cells by sulforhodamine B assay
SR = assay: Growth inhibition of human SR cells assessed as cell growth at 10^-8 M by sulforhodamine B assay; conditions: read-out: Activity
A498 [5] = assay: Growth inhibition of human A498 cells assessed as cell growth at 10^-6 M by sulforhodamine B assay; conditions: read-out: Activity
A498 [6] = assay: Growth inhibition of human A498 cells by sulforhodamine B assay
SF-295 [7] = assay: Growth inhibition of human SF295 cells assessed as cell growth at 10^-4 M by sulforhodamine B assay; conditions: read-out: Activity
SNB-19 [8] = assay: Growth inhibition of human SNB19 cells by sulforhodamine B assay
[9] = Growth inhibition of human Hs 578T cells assessed as cell growth at 10^-4 M by sulforhodamine B assay; conditions: read-out: Activity
SK-MEL-5 = assay: Growth inhibition of human SK-MEL-5 cells assessed as cell growth at 10^-8 M by sulforhodamine B assay; conditions: read-out: Activity
OVCAR-5 = assay: Growth inhibition of human OVCAR5 cells assessed as cell growth at 10^-8 M by sulforhodamine B assay; conditions: read-out: Activity
DU-145 = assay: Growth inhibition of human DU145 cells by sulforhodamine B assay
SNB-19 [10] = assay: Growth inhibition of human SNB19 cells assessed as cell growth at 10^-7 M by sulforhodamine B assay; conditions: read-out: Activity
HOP-62 [11] = assay: Growth inhibition of human HOP62 cells assessed as cell growth at 10^-6 M by sulforhodamine B assay; conditions: read-out: Activity
PC-3 = assay: Growth inhibition of human PC3 cells assessed as cell growth at 10^-7 M by sulforhodamine B assay; conditions: read-out: Activity
SF-268 [12] = assay: Growth inhibition of human SF268 cells by sulforhodamine B assay
CAKI-1 = assay: Growth inhibition of human CAKI-1 cells assessed as cell growth at 10^-8 M by sulforhodamine B assay; conditions: read-out: Activity
[13] = Growth inhibition of human HCC2998 cells assessed as cell growth at 10^-8 M by sulforhodamine B assay; conditions: HCC 2998, read-out: Activity
BT-549 = assay: Growth inhibition of human BT549 cells by sulforhodamine B assay
TK-10 [14] = assay: Growth inhibition of human TK10 cells assessed as cell growth at 10^-8 M by sulforhodamine B assay; conditions: read-out: Activity
MCF7 = assay: Growth inhibition of human MCF7 cells by sulforhodamine B assay
RPMI-8226 = assay: Growth inhibition of human RPMI8226 cells assessed as cell growth at 10^-4 M by sulforhodamine B assay; conditions: read-out: Activity
TK-10 [15] = assay: Growth inhibition of human TK10 cells by sulforhodamine B assay
COLO 205 = assay: Growth inhibition of human COLO205 cells assessed as cell growth at 10^-8 M by sulforhodamine B assay; conditions: read-out: Activity
SW-620 = assay: Growth inhibition of human SW620 cells assessed as cell growth at 10^-7 M by sulforhodamine B assay; conditions: read-out: Activity
T47D = assay: Growth inhibition of human T47D cells assessed as cell growth at 10^-8 M by sulforhodamine B assay; conditions: read-out: Activity
U-251 = assay: Growth inhibition of human U251 cells assessed as cell growth at 10^-8 M by sulforhodamine B assay; conditions: read-out: Activity
HOP-62 [16] = assay: Growth inhibition of human HOP62 cells assessed as cell growth at 10^-7 M by sulforhodamine B assay; conditions: read-out: Activity
SF-268 [17] = assay: Growth inhibition of human SF268 cells assessed as cell growth at 10^-6 M by sulforhodamine B assay; conditions: read-out: Activity
SF-539 = assay: Growth inhibition of human SF539 cells assessed as cell growth at 10^-4 M by sulforhodamine B assay; conditions: read-out: Activity
NCI-H226 = assay: Growth inhibition of human NCI-H226 cells assessed as cell growth at 10^-4 M by sulforhodamine B assay; conditions: read-out: Activity
A498 [18] = assay: Growth inhibition of human A498 cells assessed as cell growth at 10^-7 M by sulforhodamine B assay; conditions: read-out: Activity
SK-MEL-28 = assay: Growth inhibition of human SK-MEL-28 cells assessed as cell growth at 10^-7 M by sulforhodamine B assay; conditions: read-out: Activity
[19] = read-out: LC50 (the source's name)
[20] = read-out: pLC50 (the source's name) (converted)

CC1(C)C[C@@H](O)[C@]2(C(=O)O)CC[C@]3(C)C(=CC[C@@H]4[C@@]5(C)C/C(=C\C=C\c6ccccc6)C(=O)C(C)(C)[C@@H]5CC[C@]43C)[C@@H]2C1
growth at 100 µM (A549): -63% | growth at 0.1 µM (MDA-MB-435): 96% | growth at 0.01 µM (SNB-75): 89% | GI50 (OVCAR-4 [1]; read-out: GI50): 3.85 µM | CC50 (OVCAR-4 [1]; [19]): 40.2 µM | TGI (OVCAR-4 [1]; read-out: TGI): 15.4 µM | GI50 (OVCAR-4 [1]; read-out: pGI50 (converted)): 3.89 µM | CC50 (OVCAR-4 [1]; [20]): 39.8 µM | TGI (OVCAR-4 [1]; read-out: pTGI (converted)): 15.5 µM | growth at 1 µM (TK-10 [2]): 102% | growth at 100 µM (OVCAR-4 [3]): -97% | growth at 0.01 µM (OVCAR-8): 95% | growth at 0.1 µM (SF-295 [4]): 98% | growth at 1 µM (MDA-MB-468): 92% | GI50 (NCI-H23; read-out: GI50): 3.28 µM | CC50 (NCI-H23; [19]): 43.2 µM | TGI (NCI-H23; read-out: TGI): 12.3 µM | GI50 (NCI-H23; read-out: pGI50 (converted)): 3.31 µM | CC50 (NCI-H23; [20]): 43.7 µM | TGI (NCI-H23; read-out: pTGI (converted)): 12.3 µM | growth at 0.01 µM (SR): 107% | growth at 1 µM (A498 [5]): 80% | GI50 (A498 [6]; read-out: GI50): 2.55 µM | CC50 (A498 [6]; [19]): 35.2 µM | TGI (A498 [6]; read-out: TGI): 11.6 µM | GI50 (A498 [6]; read-out: pGI50 (converted)): 2.57 µM | CC50 (A498 [6]; [20]): 35.5 µM | TGI (A498 [6]; read-out: pTGI (converted)): 11.5 µM | growth at 100 µM (SF-295 [7]): -66% | GI50 (SNB-19 [8]; read-out: GI50): 4.03 µM | CC50 (SNB-19 [8]; [19]): 44.5 µM | TGI (SNB-19 [8]; read-out: TGI): 16.5 µM | GI50 (SNB-19 [8]; read-out: pGI50 (converted)): 4.07 µM | CC50 (SNB-19 [8]; [20]): 44.7 µM | TGI (SNB-19 [8]; read-out: pTGI (converted)): 16.6 µM | growth at 100 µM [9]: -35% | growth at 0.01 µM (SK-MEL-5): 99% | growth at 0.01 µM (OVCAR-5): 103% | GI50 (DU-145; read-out: GI50): 4.23 µM | CC50 (DU-145; [19]): 41.7 µM | TGI (DU-145; read-out: TGI): 14.9 µM | GI50 (DU-145; read-out: pGI50 (converted)): 4.27 µM | CC50 (DU-145; [20]): 41.7 µM | TGI (DU-145; read-out: pTGI (converted)): 14.8 µM | growth at 0.1 µM (SNB-19 [10]): 89% | growth at 1 µM (HOP-62 [11]): 97% | growth at 0.1 µM (PC-3): 96% | GI50 (SF-268 [12]; read-out: GI50): 3.36 µM | LC50 (SF-268 [12]; read-out: LC50): 45.5 µM | TGI (SF-268 [12]; read-out: TGI): 14 µM | GI50 (SF-268 [12]; read-out: pGI50 (converted)): 3.39 µM | LC50 (SF-268 [12]; read-out: pLC50 (converted)): 45.7 µM | TGI (SF-268 [12]; read-out: pTGI (converted)): 14.1 µM | growth at 0.01 µM (CAKI-1): 94% | growth at 0.01 µM [13]: 92% | GI50 (BT-549; read-out: GI50): 3.84 µM | CC50 (BT-549; [19]): 55.9 µM | TGI (BT-549; read-out: TGI): 14.8 µM | GI50 (BT-549; read-out: pGI50 (converted)): 3.8 µM | CC50 (BT-549; [20]): 56.2 µM | TGI (BT-549; read-out: pTGI (converted)): 14.8 µM | growth at 0.01 µM (TK-10 [14]): 98% | GI50 (MCF7; read-out: GI50): 3.23 µM | CC50 (MCF7; [19]): 56.9 µM | TGI (MCF7; read-out: TGI): 12.3 µM | GI50 (MCF7; read-out: pGI50 (converted)): 3.24 µM | CC50 (MCF7; [20]): 57.5 µM | TGI (MCF7; read-out: pTGI (converted)): 12.3 µM | growth at 100 µM (RPMI-8226): -6% | GI50 (TK-10 [15]; read-out: GI50): 3.71 µM | CC50 (TK-10 [15]; [19]): 42.4 µM | TGI (TK-10 [15]; read-out: TGI): 12.8 µM | GI50 (TK-10 [15]; read-out: pGI50 (converted)): 3.72 µM | CC50 (TK-10 [15]; [20]): 42.7 µM | TGI (TK-10 [15]; read-out: pTGI (converted)): 12.9 µM | growth at 0.01 µM (COLO 205): 103% | growth at 0.1 µM (SW-620): 97% | growth at 0.01 µM (T47D): 101% | growth at 0.01 µM (U-251): 92% | growth at 0.1 µM (HOP-62 [16]): 91% | growth at 1 µM (SF-268 [17]): 90% | growth at 100 µM (SF-539): -90% | growth at 100 µM (NCI-H226): -70% | growth at 0.1 µM (A498 [18]): 78% | growth at 0.1 µM (SK-MEL-28): 102%
